# In patent publication US6824990B1, “Methods of detecting and modulating oligomerization of G protein-coupled receptors” (priority 1999, dated 2004):
# Assays:
# [1] = target: T1, Ste2Δtail-CFP and Ste2Δtail-YFP (Saccharomyces cerevisiae, UniProt D6VTK4); test: FRET in purified plasma membrane fractions; assay type: biochemical, S. cerevisiae
# T1 construct: CFP and YFP were joined 8 amino acids (position 304) beyond transmembrane domain VII of the α-factor receptor; expressed in transfected cells; host or cells: S. cerevisiae KBY58 (ste2Δ), single copy plasmids, STE2 promoter
# T1 sequence (D6VTK4 1-304, stated change not applied): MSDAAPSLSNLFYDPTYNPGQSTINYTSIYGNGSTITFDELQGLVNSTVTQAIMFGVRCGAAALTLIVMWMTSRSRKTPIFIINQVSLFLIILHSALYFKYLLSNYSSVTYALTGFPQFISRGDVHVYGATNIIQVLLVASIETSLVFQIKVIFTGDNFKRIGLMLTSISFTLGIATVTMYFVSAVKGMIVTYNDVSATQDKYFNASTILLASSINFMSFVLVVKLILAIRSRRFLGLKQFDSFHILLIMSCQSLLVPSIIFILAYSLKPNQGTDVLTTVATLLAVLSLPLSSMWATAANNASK
# Description: Yeast cells expressed tailless α-factor receptors fused to CFP or YFP (Ste2-CFP or -YFP) and/or glucose transporters fused to YFP (Hxt1-YFP), as indicated. Untagged α-factor receptors (Ste2) or glucose transporters (Hxt1) were overexpressed where indicated. Intact cells (panels a-g) or plasma membrane fractions (panels h-i) were excited at the λmax of CFP (440 nm) and fluorescence emission was detected by scanning fluorometry. Fluorescence emission due to FRET (FRET) was determined as: (emission spectrum of cells co-expressing CFP and YFP fusion proteins)—(emission spectrum of cells expressing CFP fusion alone)—(emission spectrum of cells expressing YFP fusion alone). The efficiency of FRET (panel e) was determined as: (integrated FRET curve)/(integrated emission curve obtained upon direct excitation of YFP at 490 nm). In panels f, g and i, only the FRET emission curves are shown for experiments performed under the indicated conditions. […]
# CFP and YFP were joined 8 amino acids (position 304) beyond transmembrane domain VII of the α-factor receptor (STE2 gene product) and at the immediate C-terminus of a glucose transporter (HXT1 gene product). These fusion proteins were expressed from the STE2 promoter on single copy plasmids with different selectable markers, allowing them to be co-expressed at similar levels as shown by quantitation of CFP and YFP fluorescence. […]
# [2] = system: Ste2Δtail-CFP and Ste2Δtail-YFP; test: FRET between CFP- and YFP-tagged tailless α-factor receptors in intact yeast cells; assay type: cell-based, S. cerevisiae; settings: cells treated with latrunculin B
# Description: (§1) Yeast cells expressed tailless α-factor receptors fused to CFP or YFP (Ste2-CFP or -YFP) and/or glucose transporters fused to YFP (Hxt1-YFP), as indicated. Untagged α-factor receptors (Ste2) or glucose transporters (Hxt1) were overexpressed where indicated. Intact cells (panels a-g) or plasma membrane fractions (panels h-i) were excited at the λmax of CFP (440 nm) and fluorescence emission was detected by scanning fluorometry. Fluorescence emission due to FRET (FRET) was determined as: (emission spectrum of cells co-expressing CFP and YFP fusion proteins)—(emission spectrum of cells expressing CFP fusion alone)—(emission spectrum of cells expressing YFP fusion alone). The efficiency of FRET (panel e) was determined as: (integrated FRET curve)/(integrated emission curve obtained upon direct excitation of YFP at 490 nm). In panels f, g and i, only the FRET emission curves are shown for experiments performed under the indicated conditions. The results shown in each panel are representative of at least 6 independent experiments, with equivalent results.
# (§2) CFP and YFP were joined 8 amino acids (position 304) beyond transmembrane domain VII of the α-factor receptor (STE2 gene product) and at the immediate C-terminus of a glucose transporter (HXT1 gene product). These fusion proteins were expressed from the STE2 promoter on single copy plasmids with different selectable markers, allowing them to be co-expressed at similar levels as shown by quantitation of CFP and YFP fluorescence. Ste2Δtail-CFP and -YFP fusions had normal agonist binding affinities (1-2 nM) and cell surface expression (6-8,000 receptors/cell), as determined by radioligand binding assays. […] Yeast cells (KBY58, a ste2Δ mutant) expressing CFP and/or YFP fusion proteins were grown at 30° C. in selective media to a density of 10^7 cells/ml, washed, suspended in 50 mM PIPES, pH 6.0 and analyzed by scanning fluorometry. […] Cells (10^7 cells in 3 ml) or membranes (20 μg protein in 3 ml) were irradiated at 440 nm to excite CFP and fluorescence emission was recorded from 460-610 nm. […]
# [3] = target: T1, Ste2Δtail-CFP and Ste2Δtail-YFP; test: as above; assay type: cell-based, S. cerevisiae
# Description: as §1, §2
compound,measurement,setting,value
Nc1nc2c(ncn2[C@@H]2O[C@H](COP(=O)(O)OP(=O)(O)OP(O)(O)=S)[C@@H](O)[C@H]2O)c(=O)[nH]1 [GTP-γS],apparent efficiency of FRET,"[1]; 5 μM agonist and 50 μM GTP-γS (activated and uncoupled), indistinguishable from inactive, n=11",20%±2%
same,effect on efficiency of FRET,"[1]; given membrane preparation, GTP-γS 50 μM",no effect
C/C1=C/C(=O)O[C@@H]2C[C@@H](CC[C@H](C)/C=C\CC1)O[C@@](O)([C@@H]1CSC(=O)N1)C2 [latrunculin B],FRET when the actin cytoskeleton was disassembled,[2],FRET was detected
"desTrp1,Ala3,Nle12-α-factor",effect on efficiency of FRET,"[3]; given transformant, 1 nM-5 μM, 1-20 min after addition",no effect
same,apparent efficiency of FRET,"[3]; treated cells, sub-saturating to saturating ligand concentrations, indistinguishable from control cells, n=6",18%±1
